Measured values taken from patent US20030212014A1 (priority 2000, published 2003).
Like-named read-outs stand apart in the source and are kept apart here.

Assays:
[1] = system: Na+/K+ pump; assay: Radioactive rubidium uptake with and without ouabain in HUVEC; assay type: cell-based, human; settings: 2 mM AICAR for 2 hours
Experimental: One of the major ATP users, the Na^+/K^+pump, was investigated. The activity of this pump was tested by measuring the uptake of radioactive rubidium in the absence and presence of ouabain, an Na^+/K^+pump inhibitor. The difference in uptake, which is referred to as ouabain-sensitive Rb^+uptake, is the Na^+/K^+pump activity. […] When the ouabain sensitive component was calculated, no ,difference was seen between the two incubations, (2.11±0.9 and 3.3±0.9 pmol/min/mg protein), thus leading us to believe that no change in Na^+/K^+pump activity had occurred. […] The AMPK activity remained high with a longer incubation time up to 120 minutes.

[2] = system: caspase-3; assay: Caspase-3 activity in HUVEC incubated with 30 mM glucose; assay type: cell-based, human; settings: 30 mM glucose + AICAR, 24 hr
From the text: A similar effect was observed when AMPK activity was increased by infecting HUVEC with constitutively active AMPK using an adenoviral vector (FIG. 9C).

[3] = system: juvenile rats; assay: Chronic intermittent AICAR treatment of juvenile rats; assay type: in vivo, rat
Experimental: This dose distributed in the extracellular space of the rat (approx. 20 ml/100g b. w.) yields a concentration in the extracellular space of approximately 5 mM.
Referring to FIG. 19, it can be seen that food intake was diminished by approximately 25% over the first 24 hrs following each injection. The rats appear to compensate by eating more on the following day. […] Cumulative net food intake was diminished only modestly (about 3%) during all long-term studies.
These include the GLUT 4 glucose transporter, hexokinase and various mitochondrial enzymes including cytochrome C oxidase and citrate synthase. […] Also we found no increase in muscle glycogen.

[4] = system: high-fat fed (HFF) rats; assay: Acute effects of a single AICAR injection in high-fat fed (HFF) rats; assay type: in vivo, rat
Experimental: Plasma parameters: This experiment was performed on HFF rats under conscious conditions following 5-7 hours of fasting. After catheters were connected to blood sampling syringes, the animals were allowed to rest for 40-50 min. Two blood samples were taken 20 min. apart, constituting the basal samples (time 0). […] Blood samples were collected at 30, 60, 90 and 120 min. after the injection. After the last sample was taken, the animals were euthanized. […] Tissue parameters: The glycogen and triglyceride content of two types of skeletal muscle and liver at the end of the experiment were determined (Table 9, FIG. 27).

[5] = system: muscle ACC activity and malonyl CoA; assay: ACC activity and malonyl CoA in muscle two hours after AICAR injection; assay type: in vivo, rat; settings: 250 mg/kg
[6] = system: HUVEC; assay type: cell-based, human
Experimental: As previously mentioned, AMPK increases fatty acid oxidation in both liver and skeletal muscle by phosphorylation and inhibition of acetyl CoA carboxylase. We wanted to test if this effect of AMPK is also present in endothelial cells. […] A significant decrease was seen within the first 30 minutes of incubation (FIG. 3). ACC activity went down from 163.1±27.0 pmol/min/mg protein at 0 minutes to 61.1±1.1 at 30 minutes (P=0.004), 73.0 ±12.4 at 60 minutes and 51.2±5.0 at 120 minutes (P=0.015). As previously described, ACC activation increases malonyl CoA levels and this in turn inhibits CPT1, the enzyme responsible for the uptake of long chain fatty acyl CoA into the mitochondria where they are oxidized. […] Fatty acid oxidation was measured by the formation of titrated water (^3H2O) in cells incubated with ^3H-palmitate. A significant increase was seen only after a 2-hour incubation (P=0.002). […] (See Table 1A, FIG. 6.) Glucose and fatty acid oxidation, glucose uptake and lactate and pyruvate release were determined in the absence and presence of […] carnitine.
To see if this also occurred in endothelial cells, glucose uptake was measured (Table 1).
In addition, lactate and pyruvate production were measured to see if the rate of glycolysis had changed.
This was not attributable to an increase in glucose oxidation. Glucose oxidation was measured by determining labeled CO2 production when the cells are incubated with ^14C-(U) glucose.
As a result their rate of oxidation can be greatly underestimated unless the tissue is prelabeled with fatty acid. […] Thus, when the HUVEC were pre-incubated with radioactive palmitate for 24 hours prior to ^14CO2 collection (to label the intracellular lipid pools), the measured rate of fatty acid oxidation was increased by 5 fold during the second hour of a two-hour incubation with radioactive palmitate added to the medium. […] (See Table 1A.)

[7] = system: HUVEC; assay: Fatty acid metabolism and malonyl CoA in HUVEC after 24 hr in 30 mM glucose; assay type: cell-based, human; settings: 30 mM glucose + 1 mM AICAR
Experimental: Fatty acid oxidation was measured over 2 hours after 24 hr prelabeling with ^3H-palmitate. Data are means ±SD (n=4−6). *P<0.05; vs 5 mM glucose. † p<0.05; vs 30 mM glucose;
We have previously shown that incubation of HUVEC for 2 hr in media containing 30 mM vs 5 mM glucose causes no changes in AMPK activity, malonyl CoA concentration, fatty acid oxidation, or lactate release. […] In addition, it impaired Akt phosphorylation in the presence of insulin (FIG. 11). […] AMPK activity tended to be higher after 24 h of incubation with 30 mM glucose; however, whether it was inappropriately low, in light of the decrease in ATP content (and presumably an increased AMP/ATP ratio), was not ascertained.

[8] = system: liver ACC activity and malonyl CoA; assay: ACC activity and malonyl CoA in liver two hours after AICAR injection; assay type: in vivo, rat
[9] = 250 mg/kg, 3 days/wk over 106 days
[10] = 12-week study period, not statistically significant
[11] = HFF rats, 250 mg/kg s.c., vs HFF-Con

## NC(=O)c1ncn([C@@H]2O[C@H](CO)[C@@H](O)[C@H]2O)c1N [AICAR, 5-aminoimidizole-4-carboxamide riboside]
[1]
  ouabain-sensitive Rb+ uptake (Na+/K+ pump activity): 3.3±0.9 pmol/min/mg protein
  total rubidium uptake: 6.0 ±0.3 pmol/min/mg protein
[2]
  caspase-3 activity: 833±14 arbitrary unit
[3]; 250 mg/kg 3 times/week, chow diet
  decrease in food intake over the first 24 hrs following each injection: approximately 25%
[3]; 250 mg/kg intermittent regimen
  hepatic enlargement: no hepatic enlargement
  hepatocellular damage, morphologically (light microscope): no evidence of hepatocellular damage
[3]; 250 mg/kg s.c. M, W, F for 25 days
  decrease in mass of intra-abdominal (retroperitoneal, mesenteric, epididymal) fat depots: 20-40%
[3]; [9]
  GLUT 4, UCP3, cytochrome C oxidase (RT-PCR) and citrate synthase activity in muscle: no changes
  muscle glycogen: no increase
[3]; 250 mg/kg, at 25 days
  weights of the heart, liver or other organs: no differences
[3]; 250 mg/kg, at 106 days
  muscle mass: increase in muscle mass is suggested
[3]; [10]
  decrease in food intake: 3-4%
  weight gain less than control: 32 g
[3]; 25 days treatment, 250 mg/kg
  decrease in plasma triglycerides: 40%
[3]; 25 days treatment, 24 hrs following the last injection
  plasma leptin: significantly diminished
[3]; all long-term studies
  decrease in cumulative net food intake: about 3%
[3]; chronic AICAR treatment
  glucose and insulin levels during an oral glucose tolerance test: lower
  plasma insulin levels: significantly diminished
[3]; rat, in vivo, sc, 250 mg/kg
  tolerability / gross toxicity: without evidence of gross toxicity
[4]; 2 h after the injection
  changes in tissue triglyceride content: not significant
  increase in glycogen content in white muscle: 16%
  reduction in liver glycogen: 52%
[4]; HFF rats, 250 mg/kg s.c.
  duration of decrease in plasma glucose: at least 60 minutes
  plasma FFA: remained unchanged
  time to decrease in plasma glucose: ≤ 30 min
[4]; HFF rats, 250 mg/kg s.c., 30-120 min post-injection
  plasma glucose: decrease
[4]; [11]
  plasma glycerol: increase
  plasma triglyceride levels: decrease
[4]; HFF rats, 250 mg/kg s.c., vs saline
  plasma insulin: decrease
[5]
  ACC activity in muscle: did not depress ACC significantly
  malonyl CoA levels in muscle: no effect
[6]; 50 pM carnitine added, 3H-palmitate, 2-hour incubation
  fatty acid oxidation: increased significantly
[6]; 14C-(U) glucose, after two hours
  glucose oxidation (labeled CO2 production): increased significantly
[6]; AICAR incubation, 2 hours
  lactate production: even more obvious decrease
  pyruvate production: slight, but significant decrease
[6]; HUVEC incubated 2 hrs in 6 mM glucose with AICAR
  ATP generated accounted for by fatty acid oxidation: ~40%
[6]; absence of carnitine, 2 hours
  fatty acid oxidation: did not show any changes
[6]; after AICAR incubation
  levels of ATP measured by bioluminescence: rose
[6]; during the AICAR incubation
  glucose uptake: decreased
[6]; no prelabeling (Table 1)
  calculated rate of ATP generation: significantly diminished
[6]; second hour of two-hour incubation, 24 hours prelabeling with palmitate, with AICAR
  ATP generated accounted for by fatty acid oxidation: 60%
[7]
  concentration of malonyl-CoA: even lower than that in cells incubated with 5 mM glucose
  diminished fatty acid oxidation caused by 30 mM glucose: completely prevented
  increased incorporation of radioactive glucose and palmitate into diacylglycerol caused by 30 mM glucose: completely prevented
[8]
  dose at which maximal effect on liver ACC activity and malonyl CoA was observed: 500 mg/kg
[8]; 250 mg/kg
  ACC activity in liver: significantly diminished
  malonyl CoA concentration in liver: significantly diminished
